The values below come from patent publication US12642274B2, “Insect neuropeptides 8” (Solasta Bio Limited, priority 2023, dated 2026).

For one experiment, the system named is Plutella xylostella. Briefly: Leaf dip assay (IRAC method 018, Chinese cabbage). The note with it: unformulated peptide 2×10^−4 M in 0.5% DMSO, 8% ACN, 0.1% Tween-80 in water, 120 hours; Acetamiprid 0.005% as comparator; conducted by FERA (FIG. 5). In kind it is in vivo. As to the method:
Peptides were tested in a leaf dip bioassay using Chinese cabbage on IRAC method 018 against Plutella xylostella. Peptide concentration at 2×10^−4 M in a solution of 0.5% DMSO, 8% ACN, 0.1% Tween-80 in water. Acetamiprid (pesticide) was tested at 0.005%. Vehicle control comprised 0.5% DMSO, 8% ACN, 0.1% Tween-80 in water. Peptide SB-P-86 was tested by a Contract Research Organisation, FERA Science Ltd. The activity of SB-P-86 is shown in FIG. 5; SB-P-86 has good activity whilst being eco-friendly and targeted to specific pests unlike broad spectrum chemical insecticides such as Acetamiprid.

The next experiment concerns Spodoptera frugiperda. Briefly: Lepidoptera artificial diet assay. In kind it is in vivo. The note with it: unformulated peptide 1×10^−4M in artificial diet, L1 larvae, one larva per cell, n=10, 168 hrs; compared to negative control vehicle and DDT (FIG. 4). From the text: Frontier Lepidoptera Artificial diet was made up by preparing agar at 1% and then mixing it with artificial diet powder. Peptide solution was aliquoted in 10 cells and diet poured straight onto it. The final concentration of the peptide was 1×10^−4M, and each peptide was aliquoted in 10 cells. Once the dict solidified and cooled down, one L1 Spodoptera frugiperda larvae was infested in each cell. The trays were sealed with heat and let larva were allowed to develop for 168 hrs. Finally, pupation and mortality were scored for. Lepidoptera artificial diet assays were performed with SB-P-86, and compared to a negative control vehicle and the insecticide dichlorodiphenyltrichloroethane (DDT).

Square brackets hold non-standard residues; d marks the D form. pGlu = O=C1CC[C@@H](C(=O)O)N1

Turning to “[Pyr]-LTFTSSWGG-[NH2] ([pGlu]LTFTSSWGG-NH2; SMILES CC(C)C[C@H](NC(=O)[C@@H]1CCC(=O)N1)C(=O)N[C@H](C(=O)N[C@@H](Cc1ccccc1)C(=O)N[C@H](C(=O)N[C@@H](CO)C(=O)N[C@@H](CO)C(=O)N[C@@H](Cc1c[nH]c2ccccc12)C(=O)NCC(=O)NCC(N)=O)[C@@H](C)O)[C@@H](C)O) [SB-P-86, AKH peptide according to the invention]”, in the experiment on Plutella xylostella, the “activity (leaf dip bioassay)” value was “good activity”. In the experiment with Spodoptera frugiperda, the “activity (pupation and mortality scored)” value was “much higher activity”.
